Results taken from patent US11998585B2, “Methods and compositions for increasing the dose of a chemotherapeutic agent” (Stealth BioTherapeutics Inc., priority 2012, dated 2024).
“Also recorded” adds a separate entry of the source.

Test system: vincristine-induced hyperalgesia in rats
Test: Vincristine-induced hyperalgesia in rats, electronic Von Frey test (paw-withdrawal threshold)
Type: in vivo, Sprague Dawley rats
Protocol: Female Sprague Dawley rats were divided randomly into 5 groups (n=10), according to Table 7. Groups 2-4 were administered Vincristine 0.10 mg/kg injected intravenously (i.v.) via tail vein followed by a bolus injection of 0.1 ml PBS vehicle, once daily for 14 days. Group 1 was administered 1 ml/kg PBS vehicle alone according to the same schedule. D-Arg-2′6′-dimethyltyrosine-Lys-Phe-NH2 10 mg/kg was administered subcutaneously (s.c.) 15 minutes prior to vincristine administration for the full 14-day period (Group 3), or for a period of two weeks beginning at day 15 (Group 4). Group 5 was administered Vincristine 0.10 mg/kg injected i.v. via tail vein, followed by a bolus injection of 0.1 ml PBS vehicle once daily for 28 days, and D-Arg-2′6′-dimethyltyrosine-Lys-Phe-NH2 10 mg/kg administered s.c. for a period of 14 days beginning at day 15.
Mechanical nociceptive threshold of paw-withdrawal was measured every two days using an electronic Von Frey test. Results are shown in FIG. 1 and FIG. 2 as means±SEM. One-way ANOVA with post-hoc test or t-test were used to assess the statistical significance, with p<0.05 is considered statistically significant. In FIG. 1, data for subjects receiving vincristine in the absence of simultaneous D-Arg-2′6′-dimethyltyrosine-Lys-Phe-NH2 (Groups 2, 4, 5) is shown collectively as “Group A.”

Molecule | treatment of vincristine-induced hyperalgesia (FIG. 2, rats, Groups 4 and 5) | pain threshold (mechanical nociceptive threshold of paw-withdrawal), prevention (Group 3: peptide 10 mg/kg s.c. daily 15 min prior to vincristine 0.10 mg/kg i.v. for 14 days, vs vehicle-only control (Group 1), FIG. 1) | pain threshold (mechanical nociceptive threshold of paw-withdrawal), treatment after withdrawal of vincristine (Group 4: vincristine 0.10 mg/kg i.v. 14 days, then peptide 10 mg/kg s.c. daily for two weeks beginning at day 15, FIG. 2) | pain threshold (mechanical nociceptive threshold of paw-withdrawal), treatment while vincristine continues (Group 5: vincristine 0.10 mg/kg i.v. 28 days, peptide 10 mg/kg s.c. daily for 14 days beginning at day 15, FIG. 2) | pain threshold after withdrawal of vincristine, no peptide (Group 2: vincristine 0.10 mg/kg i.v. 14 days + PBS vehicle, followed after day 14, FIG. 2) | pain threshold (mechanical nociceptive threshold of paw-withdrawal) under vincristine (vincristine 0.10 mg/kg i.v. daily for 14 days without peptide, vs vehicle-only control (Group 1))
D-Arg-2′6′-dimethyltyrosine-Lys-Phe-NH2 | effective in the treatment of vincristine-induced hyperalgesia in rats | not significantly different from the vehicle-only control; also recorded: effective in the prevention of vincristine-induced hyperalgesia in rats | improved pain threshold as soon as day 15, with continued improvement through day 25 | an arrest of the downward trend in pain threshold evident in the initial 14 day period, followed by an improvement in pain threshold beginning at day 16 | – | –
CC[C@]1(O)C[C@H]2CN(CCc3c([nH]c4ccccc34)[C@@](C(=O)OC)(c3cc4c(cc3OC)N(C=O)[C@H]3[C@@](O)(C(=O)OC)[C@H](OC(C)=O)[C@]5(CC)C=CCN6CC[C@]43[C@@H]65)C2)C1 [vincristine, reference compound] | – | – | – | – | continued to show a decline in pain thereshold, reaching a low point at day 21, and showed a moderate improvement beginning at day 22 | a decrease in pain threshold response compared to a vehicle-only control
